In patent US20110033488A1, “AGENTS AND METHODS FOR TREATMENT OF ANXIETY DISORDERS” (Yeda Research and Development Co. Ltd., priority 2008, published 2011):
Peptide text beside a SMILES is read from it.

Experiments:
[1] = test system: ICAM-1 on choroid plexus cells (ECACC # 00031626); assay: ICAM-1 expression on choroid plexus cell line; type: cell-based, rat; conditions: for ICAM-1 expression: 24 hrs
Protocol: (iv) Choroid Plexus endothelial cell culture. RCP cells (ECACC # 00031626, a kind gift from Dr. A. Chen, Weizmann Institute) (Battle et al., 2000) were cultured at 37° C. under 95% air/5% CO2 in DMEM medium containing 10% FCS, 100 U/ml penicillin, […], 1% insulin-transferrin-selenium mix (Sigma-Aldrich) and 0.1% Epidermal Growth Factor ([…]). The culture medium was changed every 2 days.
CPx cultures grown on cover slips were washed with PBS, and fixed as described above. The fixed cells were then treated with a blocking solution containing 10% FCS, 2% bovine serum albumin, 1% glycine, and 0.1% Triton X-100 (Sigma-Aldrich), and stained with hamster anti-mouse CD54 (ICAM-1) (Chemicon).

[2] = test system: mice; conditions: one immunization with 100 μg peptide, without pertussis toxin
[3] = all concentrations tested (1-100 ng/ml)

C[C@]12C[C@H](O)[C@H]3[C@@H](CCC4=CC(=O)CC[C@@]43C)[C@@H]1CC[C@@H]2C(=O)CO [corticosterone, reference compound]
Concentration of peak ICAM-1 expression ([1]; 24 hrs incubation): 1 ng/mL | ICAM-1 expression ([1]; higher doses 20 ng/ml and 50 ng/ml): significantly inhibited | ICAM-1 expression ([1]; lower doses 1 ng/ml and 5 ng/ml): significantly elevated

CSCC[C@H](N)C(=O)N[C@@H](CCC(=O)O)C(=O)N[C@H](C(=O)NCC(=O)N[C@@H](Cc1c[nH]c2ccccc12)C(=O)N[C@@H](Cc1ccc(O)cc1)C(=O)N[C@@H](CCCNC(=N)N)C(=O)N[C@@H](CO)C(=O)N1CCC[C@H]1C(=O)N[C@@H](Cc1ccccc1)C(=O)N[C@@H](CO)C(=O)N[C@@H](CCCNC(=N)N)C(=O)N[C@H](C(=O)N[C@H](C(=O)N[C@@H](Cc1c[nH]cn1)C(=O)N[C@@H](CC(C)C)C(=O)N[C@@H](Cc1ccc(O)cc1)C(=O)N[C@@H](CCCNC(=N)N)C(=O)N[C@@H](CC(N)=O)C(=O)NCC(=O)N[C@@H](CCCCN)C(=O)O)C(C)C)C(C)C)C(C)C [pMOG35-55] (H-MEVGWYRSPFSRVVHLYRNGK-OH; N-terminus and C-terminus assumed)
Induction of EAE [2]: no EAE was induced

IFN-γ: cytokine
ICAM-1 expression ([1]; higher concentrations): significant inhibition | ICAM-1 expression ([1]; lower concentrations (1 ng and 10 ng)): inactive

IL-6: cytokine
ICAM-1 expression [1, 3]: no effect

TNF-α
ICAM-1 expression [1, 3]: significant elevation

B1: IL-10: cytokine (protein, UniProt P22301 19-178, looked up)
Interleukin-10: SPGQGTQSENSCTHFPGNLPNMLRDLRDAFSRVKTFFQMKDQLDNLLLKESLLEDFKGYLGCQALSEMIQFYLEEVMPQAENQDPDIKAHVNSLGENLKTLRLRLRRCHRFLPCENKSKAVEQVKNAFNKLQEKGIYKAMSEFDIFINYIEAYMTMKIRN
ICAM-1 expression [1, 3]: significantly reduced
